In patent publication US20090030058A1, “TOSYLATE SALT OF 6- (4-BR0M0-2-CHL0R0PHENYLAMIN0) -7-FLUORO-N- (2-HYDROXYETHOXY) -3-METHYL-3H-BENZIMI DAZOLE- 5 - CARBOXAMIDE , MEK INHIBITOR USEFUL IN THE TREATMENT OF CANCER” (priority 2005, published 2009):
Entries after “also recorded” stand apart in the source; their conditions may differ. Where a name gives a salt, the structure may show the parent alone.

Key:
[1] = Intrinsic and powder dissolution rate (pH 6.5); format: physicochemical
Procedure: In order to investigate the effects of salts on the release rate, an intrinsic dissolution (pH 6.5) was performed.

[2] = Disproportionation study, slurry in pH 6.5 buffer, XRPD; format: physicochemical; details: for disproportionation of the salt to the free base in buffer: suspension/slurry in pH 6.5 buffer, XRPD, p-toluenesulfonate
Procedure: The characteristics of the salts in liquids were investigated by slurrying the material in a range of solvents including a buffer of pH 6.5 to simulate physiological conditions.
Compound 1 tosylate salt was slurried in pH 6.5 buffer at room temperature at a concentration of 100 mg in 2 mL. Samples were taken at 15 minute intervals up to 120 minutes.
In order to prepare the pH 6.5 slurry of Compound 1 tosylate salt, a buffer was first prepared by producing a first solution (Solution A) by adding 90.8 mg of potassium dihydrogen phosphate to a conical 100 mL flask. Deionised water was added to mark ensuring all solid had dissolved. A second solution (Solution B) was prepared by adding 118.8 mg of disodium hydrogen phosphate to a conical 100 mL flask and deionised water was added to mark ensuring all solid had dissolved. Then 64 mL of solution A was mixed with 32 mL of solution B to form a pH 6.5 buffer
The slurry was prepared by adding 100 mg of Compound 1 tosylate to a 10 mL vial and to this was added 2 mL of the pH 6.5 buffer (prepared above), a magnetic stir bar was added and vial placed on a magnetic stirrer. Small aliquots of the suspension were removed after 15 minutes, 30 minutes, 45 minutes, 60 minutes and 120 minutes and each sample was placed on a metal plate on the D8 Diffractometer and an XRPD pattern determined immediately. The results after 0, 15 and 60 minutes are shown in FIGS. 7, 8 and 9, respectively.

[3] = Percent dissolution after 1 hour, tablet and powder form; format: physicochemical
Procedure: Dissolution of the free base of Compound 1 as well as the tosylate salt of Compound 1 was investigated at the 1 hour time point in both tablet form and powder form. The dissolution rate of the tosylate salt was generally much higher than that of the free base.

[4] = Particle size reduction (milling, micronisation), PXRD; format: physicochemical; details: pestle and mortar 10 minutes or spiral jet mill, listed as tosylate salt, p-toluenesulfonate
Procedure: In order to investigate the potential for the materials to become amorphous during particle size reduction procedures, batches of the material were milled either by grinding the material in a pestle and mortar for 10 minutes or by micronising using conventional micronising equipment, in this case, a 2″ Spiral jet mill manufactured by Gravesend engineering. The products were subjected to PXRD as described in Example 4 above.

[5] = Dog study, plasma levels of Compound 1 after oral tablets; format: in vivo, Alderley Park Beagle Dogs; details: fasted dogs, 50 mg or 150 mg fbe
Procedure: A dog study was performed to measure plasma levels of Compound 1 in fasted dogs following oral administration of 50 mg free base equivalent (fbe) doses in tablets of the free base and the tosylate salt (form 2 of the 1:1 stoichiometric salt), and 150 mg fbe as 3×50 mg tablets of the tosylate salt.
Tablets of Compound 1 were manufactured using a standard direct compression process. Three batches were made containing Compound 1 free base or Compound 1 tosylate as the active pharmaceutical ingredient (API). The generic formulation contained API (12.5% w/w), fast flo lactose (72.0% w/w), Avicel PH102 (10.0% w/w), AcDiSol (4.0% w/w), sodium lauryl sulfate (0.5% w/w) and magnesium stearate (1.0% w/w). The required quantity of each formulation component, excluding magnesium stearate, was weighed and charged to a mixing vessel. The powders were then mixed for 30 minutes using a tumble blender. The powder mix was then sieved through a 425 μm sieve before being mixed for a further 15 minutes using the tumble blender. […] The required quantity of powder mix for each tablet was weighed individually and charged to the die before being compressed manually using a hand-operated press. […]
Dogs were fed about 400 g of Harlan Teklad 2021 each day and allowed water ad libitum. […] Plasma (50 mcL) was analysed for Compound 1 concentration.

[6] = Solubility in various media (amount dissolved after stirring with excess solid); format: physicochemical
Procedure: Due to the observation of the tosylate salt remaining as the salt form in solution, further investigations were performed to probe the solubility of the salts in various media. The amounts dissolved (mg/mL) in the various media after stirring either the Compound 1 free base or the Compound 1 tosylate salt with excess solid for 10 minutes and 60 minutes are shown in Table 4 (SIF=Simulated intestinal fluid; FaSIF=Fasted Simulated Intestinal Fluid).

[7] = Solid state storage stability (disproportionation); format: physicochemical; details: 3 months storage at 40° C. and 5% relative humidity
[8] = system: constitutively active MEK1 (2-393); assay: MEK1 kinase assay (33P incorporation onto ERK2); format: biochemical
Procedure: N-terminal 6 His-tagged, constitutively active MEK1 (2-393) is expressed in E. coli and protein is purified by conventional methods (Ahn et al., Science 1994, 265, 966-970). The activity of MEK1 is assessed by measuring the incorporation of γ-^33P-phosphate from γ-^33P-ATP onto N-terminal His tagged ERK2, which is expressed in E. coli and is purified by conventional methods, in the presence of MEK1. The assay is carried out in 96-well polypropylene plate. The incubation mixture (100 μL) comprises of 25 mM Hepes, pH 7.4, 10 mM MgCl2, 5 mM β-glycerolphosphate, 100 μM sodium orthovanadate, 5 mM DTT, 5 nM MEK1, and 1 μM ERK2. Inhibitors are suspended in DMSO, and all reactions, including controls are performed at a final concentration of 1% DMSO. Reactions are initiated by the addition of 10 μM ATP (with 0.5 μCi γ-^33P-ATP/well) and incubated at ambient temperature for 45 minutes. Equal volume of 25% TCA is added to stop the reaction and precipitate the proteins. Precipitated proteins are trapped onto glass fiber B filterplates, and excess labeled ATP washed off using a Tomtec MACH III harvestor. Plates are allowed to air-dry prior to adding 30 μL/well of Packard Microscint 20, and plates are counted using a Packard TopCount.

[9] = Relative stability of polymorphs; format: physicochemical; details: 1:1 anhydrous salt

## Cn1cnc2c(F)c(Nc3ccc(Br)cc3Cl)c(C(=O)NOCCO)cc21 [Compound 1 tosylate, 6-(4-bromo-2-chloro-phenylamino)-7-fluoro-3-methyl-3H-benzoimidazole-5-carboxylic acid (2-hydroxy-ethoxy)-amide p-toluenesulfonate]
[1]
  intrinsic dissolution rate relative to the free base: comparable to that of the free base
  powder dissolution rate relative to the free base: 60 times
[2]; pH 6.5 buffer, room temperature, 100 mg in 2 mL
  time the salt remains present in the slurry: up to 75 minutes
[2]; listed as Compound 1 tosylate salt
  disproportionation of the salt to the free base in buffer: a small amount of free base is produced after 15 minutes
[2]
  disproportionation of the salt to the free base in buffer: little disproportionation
[3]; FaSSIF, 50 mg (fbe) tablets, p-toluenesulfonate
  percent dissolution after 1 hour: 23.05%
[3]; FaSSIF, powder, p-toluenesulfonate
  percent dissolution after 1 hour: 31.48%
[3]; SIF pH 6.5, 50 mg (fbe) tablets, p-toluenesulfonate
  percent dissolution after 1 hour: 6.66%
[3]; SIF pH 6.5, powder, p-toluenesulfonate
  percent dissolution after 1 hour: 5.16%
[4]
  resistance to becoming amorphous on milling and micronisation: highly resistant to becoming amorphous; also recorded: unique resistance to becoming amorphous
[5]
  exposure (plasma Compound 1) versus free base: substantial increase in exposure
[6]; FaSSIF, 10 min, p-toluenesulfonate
  amount dissolved: 0.19 mg/mL
[6]; FaSSIF, 60 min, p-toluenesulfonate
  amount dissolved: 0.04 mg/mL
[6]; H2O, 10 min, p-toluenesulfonate
  amount dissolved: 0.058 mg/mL
[6]; SIF pH 6.5, 10 min, p-toluenesulfonate
  amount dissolved: 0.041 mg/mL
[6]; SIF pH 6.5, 60 min, p-toluenesulfonate
  amount dissolved: 0.020 mg/mL
[6]; Sorenson's buffer, 10 min, p-toluenesulfonate
  amount dissolved: 0.019 mg/mL
[6]; Sorenson's buffer, 60 min, p-toluenesulfonate
  amount dissolved: 0.007 mg/mL
[6]; pH 1.2, 10 min, p-toluenesulfonate
  amount dissolved: 0.41 mg/mL
[6]; pH 1.2, 60 min, p-toluenesulfonate
  amount dissolved: 0.19 mg/mL
[7]
  disproportionation in the solid state: no disproportionation

## Cn1cnc2c(F)c(Nc3ccc(Br)cc3Cl)c(C(=O)NOCCO)cc21 [Compound 1, 6-(4-bromo-2-chloro-phenylamino)-7-fluoro-3-methyl-3H-benzoimidazole-5-carboxylic acid (2-hydroxy-ethoxy)-amide]
[3]; FaSSIF, 50 mg (fbe) tablets, listed as Compound 1 Free base
  percent dissolution after 1 hour: 4.54%
[3]; FaSSIF, powder, listed as Compound 1 Free base
  percent dissolution after 1 hour: 4.49%
[3]; SIF pH 6.5, 50 mg (fbe) tablets, listed as Compound 1 Free base
  percent dissolution after 1 hour: 2.61%
[3]; SIF pH 6.5, powder, listed as Compound 1 Free base
  percent dissolution after 1 hour: 2.36%
[8]
  activity in MEK1 assay: activity
[6]; FaSSIF, 10 min, listed as Compound 1 free base
  amount dissolved: 0.01 mg/mL
[6]; FaSSIF, 60 min, listed as Compound 1 free base
  amount dissolved: 0.01 mg/mL
[6]; H2O, 10 min, listed as Compound 1 free base
  amount dissolved: 0.004 mg/mL
[6]; SIF pH 6.5, 10 min, listed as Compound 1 free base
  amount dissolved: 0.004 mg/mL
[6]; SIF pH 6.5, 60 min, listed as Compound 1 free base
  amount dissolved: 0.004 mg/mL
[6]; Sorenson's buffer, 10 min, listed as Compound 1 free base
  amount dissolved: 0.004 mg/mL
[6]; Sorenson's buffer, 60 min, listed as Compound 1 free base
  amount dissolved: 0.004 mg/mL
[6]; pH 1.2, 10 min, listed as Compound 1 free base
  amount dissolved: 0.14 mg/mL
[6]; pH 1.2, 60 min, listed as Compound 1 free base
  amount dissolved: 0.13 mg/mL

## Cn1cnc2c(F)c(Nc3ccc(Br)cc3Cl)c(C(=O)NOCCO)cc21 [Form 2, 6-(4-bromo-2-chloro-phenylamino)-7-fluoro-3-methyl-3H-benzoimidazole-5-carboxylic acid (2-hydroxy-ethoxy)-amide p-toluenesulfonate]
[2]
  disproportionation of the salt to the free base in buffer: some kinetic resistance to disproportionate
[9]
  stability relative to the other polymorph: more stable than the salt in the form of the polymorph Form 1
